From patent US20100048950A1 (BOEHRINGER INGELHEIM INTERNATIONAL GMBH, priority 2007, published 2010)

Target: T1, human glucocorticoid receptor (GR) complex (Homo sapiens, UniProt P04150)
T1 construct: made in house; host or cells: insect expression system (baculovirus lysate)
T1 sequence (P04150 1-777): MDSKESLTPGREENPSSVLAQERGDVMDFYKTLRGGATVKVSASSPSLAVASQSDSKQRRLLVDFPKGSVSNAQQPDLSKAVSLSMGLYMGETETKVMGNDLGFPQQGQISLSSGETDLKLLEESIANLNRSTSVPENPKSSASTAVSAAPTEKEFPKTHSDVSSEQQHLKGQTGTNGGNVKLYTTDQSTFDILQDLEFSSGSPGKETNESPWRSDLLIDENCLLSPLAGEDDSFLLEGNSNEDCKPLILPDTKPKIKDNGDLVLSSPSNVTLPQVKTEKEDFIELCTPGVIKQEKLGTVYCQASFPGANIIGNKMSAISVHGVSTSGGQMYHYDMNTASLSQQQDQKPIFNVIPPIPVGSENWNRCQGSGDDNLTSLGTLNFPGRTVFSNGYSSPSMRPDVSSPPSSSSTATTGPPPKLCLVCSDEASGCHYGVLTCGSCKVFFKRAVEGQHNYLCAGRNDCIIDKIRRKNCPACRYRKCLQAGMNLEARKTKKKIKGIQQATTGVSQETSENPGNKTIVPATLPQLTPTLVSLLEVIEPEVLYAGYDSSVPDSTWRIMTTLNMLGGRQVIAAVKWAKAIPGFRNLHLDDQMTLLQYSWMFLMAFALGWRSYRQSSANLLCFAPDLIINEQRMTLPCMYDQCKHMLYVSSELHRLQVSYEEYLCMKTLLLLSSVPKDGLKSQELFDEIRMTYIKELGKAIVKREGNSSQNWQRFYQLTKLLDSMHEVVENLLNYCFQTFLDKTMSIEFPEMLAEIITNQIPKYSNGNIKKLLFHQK
Assay: Glucocorticoid receptor competitive binding assay (fluorescence polarization)
Conditions: competition with TAMRA-labeled dexamethasone, read-out: potent activity (IC50) in the GR binding assay
Method: Compounds of the invention were evaluated for binding to the steroid receptor by a fluorescence polarization competitive binding assay. Detailed descriptions for preparation of recombinant glucocorticoid receptor (GR) complex used in the assay is described in U.S. Patent Application Publication No. US 2003/0017503, filed May 20, 2002, and incorporated herein by reference in its entirety. Preparation of the tetramethylrhodamine (TAMRA)-labeled dexamethasone probe was accomplished using a standard literature procedure (M. Pons et al., J. Steroid Biochem., 1985, 22, pp. 267-273).
The affinity of the probe for the steroid receptor was then determined in a titration experiment. The fluorescence polarization value of the probe in assay buffer was measured on an SLM-8100 fluorometer using the excitation and emission maximum values described above. Aliquots of expression vector lysate were added and fluorescence polarization was measured after each addition until no further change in polarization value was observed. Non-linear least squares regression analysis was used to calculate the dissociation constant of the probe from the polarization values obtained for lysate binding to the probe.
This assay uses fluorescence polarization (FP) to quantitate the ability of test compounds to compete with tetramethylrhodamine (TAMRA)-labeled dexamethasone for binding to a human glucocorticoid receptor (GR) complex prepared from an insect expression system. The assay buffer was: 10 mM TES, 50 mM KCl, 20 mM Na2MoO4.2H2O, 1.5 mM EDTA, 0.04% w/v CHAPS, 10% v/v glycerol, 1 mM dithiothreitol, pH 7.4. Test compounds were dissolved to 1 mM in neat DMSO and then further diluted to 10× assay concentration in assay buffer supplemented with 10% v/v DMSO. Test compounds were serially diluted at 10× assay concentrations in 10% DMSO-containing buffer in 96-well polypropylene plates. Binding reaction mixtures were prepared in 96-well black Dynex microtiter plates by sequential addition of the following assay components to each well: 15 μL of 10× test compound solution, 85 μL of GR-containing baculovirus lysate diluted 1:170 in assay buffer, and 50 μL of 15 nM TAMRA-labeled dexamethasone. Positive controls were reaction mixtures containing no test compound; negative controls (blanks) were reaction mixtures containing 0.7 μM to 2 μM dexamethasone. The binding reactions were incubated for 1 hour at room temperature and then read for fluorescence polarization in the LJL Analyst set to 550 nm excitation and 580 nm emission, with the Rhodamine 561 dichroic mirror installed. IC50 values were determined by iterative non-linear curve fitting of the FP signal data to a 4-parameter logistic equation.

IC50, ≤ 100 nM:
COc1ccc(NCC(NS(=O)(=O)c2c(C)cc(C)cc2C)C(F)(F)F)c(OC)c1 (stereo not shown) [N-{1-[(2,4-Dimethoxyphenylamino)methyl]-2,2,2-trifluoroethyl}-2,4,6-trimethylbenzenesulfonamide], CCc1cccc(C)c1NCC(NS(=O)(=O)c1c(C)cc(C)cc1C)C(F)(F)F (stereo not shown) [N-{1-[(2-Ethyl-6-methylphenylamino)methyl]-2,2,2-trifluoroethyl}-2,4,6-trimethylbenzenesulfonamide], Cc1cc(C)c(S(=O)(=O)NC(CNc2cccc(Br)c2)C(F)(F)F)c(C)c1 (stereo not shown) [N-{1-[(3-Bromophenylamino)methyl]-2,2,2-trifluoroethyl}-2,4,6-trimethylbenzenesulfonamide], Cc1cc(C)c(S(=O)(=O)NC(COc2cccc(C#N)c2)C(F)(F)F)c(C)c1 (stereo not shown) [N-[1-(3-Cyanophenoxymethyl)-2,2,2-trifluoroethyl]-2,4,6-trimethylbenzenesulfonamide], Cc1cc(C)cc(SCC(NS(=O)(=O)c2c(C)cc(C)cc2C)C(F)(F)F)c1 (stereo not shown) [N-[1-(3,5-Dimethylphenylsulfanylmethyl)-2,2,2-trifluoroethyl]-2,4,6-trimethylbenzenesulfonamide], Cc1cc(C)c(S(=O)(=O)NC(CSc2ccccc2Cl)C(F)(F)F)c(C)c1 (stereo not shown) [N-[1-(2-Chlorophenylsulfanylmethyl)-2,2,2-trifluoroethyl]-2,4,6-trimethylbenzenesulfonamide], Cc1cc(C)c(S(=O)(=O)NC(CSc2ccc(Br)cc2)C(F)(F)F)c(C)c1 (stereo not shown) [N-[1-(4-Bromophenylsulfanylmethyl)-2,2,2-trifluoroethyl]-2,4,6-trimethylbenzenesulfonamide], COc1ccccc1SCC(NS(=O)(=O)c1c(C)cc(C)cc1C)C(F)(F)F (stereo not shown) [2,4,6-Trimethyl-N-[2,2,2-trifluoro-1-(2-methoxyphenylsulfanylmethyl)ethyl]benzenesulfonamide], Cc1cc(C)c(S(=O)(=O)NC(CNc2cccc3c2CCCC3)C(F)(F)F)c(C)c1 (stereo not shown) [2,4,6-Trimethyl-N-{2,2,2-trifluoro-1-[(5,6,7,8-tetrahydronaphthalen-1-ylamino)methyl]ethyl}benzenesulfonamide], COc1ccc(N(Cc2ccccc2)CC(NS(=O)(=O)c2c(C)cc(C)cc2C)C(F)(F)F)cc1 (stereo not shown) [N-(1-{[Benzyl-(4-methoxyphenyl)amino]methyl}-2,2,2-trifluoroethyl)-2,4,6-trimethylbenzenesulfonamide], Cc1cc(C)c(S(=O)(=O)NC(COc2cccc(F)c2)C(F)(F)F)c(C)c1 (stereo not shown) [2,4,6-Trimethyl-N-[2,2,2-trifluoro-1-(3-fluorophenoxymethyl)ethyl]benzenesulfonamide], Cc1cc(C)c(S(=O)(=O)NC(CSc2ccccc2C(C)C)C(F)(F)F)c(C)c1 (stereo not shown) [2,4,6-Trimethyl-N-[2,2,2-trifluoro-1-(2-isopropylphenylsulfanylmethyl)ethyl]benzenesulfonamide], CSc1cccc(NCC(NS(=O)(=O)c2c(C)cc(C)cc2C)C(F)(F)F)c1 (stereo not shown) [2,4,6-Trimethyl-N-{2,2,2-trifluoro-1-[(3-methylsulfanylphenylamino)methyl]ethyl}benzenesulfonamide], Cc1cc(C)c(S(=O)(=O)NC(CNc2c(Cl)cccc2Cl)C(F)(F)F)c(C)c1 (stereo not shown) [N-{1-[(2,6-Dichlorophenylamino)methyl]-2,2,2-trifluoroethyl}-2,4,6-trimethylbenzenesulfonamide], Cc1cc(C)c(S(=O)(=O)NC(CSc2cc(C)ccc2C)C(F)(F)F)c(C)c1 (stereo not shown) [N-[1-(2,5-Dimethylphenylsulfanylmethyl)-2,2,2-trifluoroethyl]-2,4,6-trimethylbenzenesulfonamide], Cc1cc(C)c(S(=O)(=O)NC(CNc2ccc(F)cc2F)C(F)(F)F)c(C)c1 (stereo not shown) [N-{1-[(2,4-Difluorophenylamino)methyl]-2,2,2-trifluoroethyl}-2,4,6-trimethylbenzenesulfonamide], Cc1cc(C)c(S(=O)(=O)NC(COc2cc(Cl)ccc2C)C(F)(F)F)c(C)c1 (stereo not shown) [N-[1-(5-Chloro-2-methylphenoxymethyl)-2,2,2-trifluoroethyl]-2,4,6-trimethylbenzenesulfonamide], Cc1cc(C)c(S(=O)(=O)NC(COc2cccc(Br)c2)C(F)(F)F)c(C)c1 (stereo not shown) [N-[1-(3-Bromophenoxymethyl)-2,2,2-trifluoroethyl]-2,4,6-trimethylbenzenesulfonamide], Cc1cc(C)c(S(=O)(=O)NC(CSc2ccc(Cl)cc2)C(F)(F)F)c(C)c1 (stereo not shown) [N-[1-(4-Chlorophenylsulfanylmethyl)-2,2,2-trifluoroethyl]-2,4,6-trimethylbenzenesulfonamide], Cc1ccc(SCC(NS(=O)(=O)c2c(C)cc(C)cc2C)C(F)(F)F)c(C)c1 (stereo not shown) [N-[1-(2,4-Dimethylphenylsulfanylmethyl)-2,2,2-trifluoroethyl]-2,4,6-trimethylbenzenesulfonamide], Cc1cc(C)c(S(=O)(=O)NC(CN(C)c2ccccc2OC(F)(F)F)C(F)(F)F)c(C)c1 (stereo not shown) [2,4,6-Trimethyl-N-(2,2,2-trifluoro-1-{[methyl-(2-trifluoromethoxyphenyl)amino]methyl}-ethyl)benzenesulfonamide], Cc1ccc(OCC(NS(=O)(=O)c2c(C)cc(C)cc2C)C(F)(F)F)c(C)c1 (stereo not shown) [N-[1-(2,4-Dimethylphenoxymethyl)-2,2,2-trifluoroethyl]-2,4,6-trimethylbenzenesulfonamide], Cc1cc(C)c(S(=O)(=O)NC(CNc2cccc(-c3cnco3)c2)C(F)(F)F)c(C)c1 (stereo not shown) [2,4,6-Trimethyl-N-{2,2,2-trifluoro-1-[(3-oxazol-5-ylphenylamino)methyl]ethyl}benzenesulfonamide], COc1ccc(NCC(NS(=O)(=O)c2c(C)cc(C)cc2C)C(F)(F)F)c(C)c1 (stereo not shown) [2,4,6-Trimethyl-N-{2,2,2-trifluoro-1-[(4-methoxy-2-methylphenylamino)methyl]ethyl}benzenesulfonamide], Cc1cc(C)c(S(=O)(=O)NC(CSc2ccccc2Br)C(F)(F)F)c(C)c1 (stereo not shown) [N-[1-(2-Bromophenylsulfanylmethyl)-2,2,2-trifluoroethyl]-2,4,6-trimethylbenzenesulfonamide], Cc1cc(C)c(S(=O)(=O)NC(CNc2c(F)cccc2F)C(F)(F)F)c(C)c1 (stereo not shown) [N-{1-[(2,6-Difluorophenylamino)methyl]-2,2,2-trifluoroethyl}-2,4,6-trimethylbenzenesulfonamide], Cc1cccc(NCC(NS(=O)(=O)c2c(C)cc(C)cc2C)C(F)(F)F)c1 (stereo not shown) [2,4,6-Trimethyl-N-[2,2,2-trifluoro-1-(m-tolylaminomethyl)ethyl]benzenesulfonamide], Cc1cc(C)c(S(=O)(=O)NC(COc2cc(Cl)cc(Cl)c2)C(F)(F)F)c(C)c1 (stereo not shown) [N-[1-(3,5-Dichlorophenoxymethyl)-2,2,2-trifluoroethyl]-2,4,6-trimethylbenzenesulfonamide]
